Data: PMC6222898, “Cinnamoyl-Oxaborole Amides: Synthesis and Their in Vitro Biological Activity” (Molecules : A Journal of Synthetic Chemistry and Natural …, 2018)
Values after ≈ are worked out from the molar mass of the structure shown. Like-named read-outs stand apart in the source and are kept apart here.

What was measured:
[1] = system: Trypanosoma brucei brucei 427 trypomastigotes; settings: cited from earlier work
Dd2 = system: Dd2; set-up: method as in PMID 11310613; settings: Figure 2; cited from earlier work
[2] = system: Trypanosoma brucei brucei 427 trypomastigotes; experiment: In vitro antitrypanosomal assay (resazurin viability); type: cell-based; settings: T. b. brucei 427, 24 h incubation
Protocol: Trypanosoma brucei brucei 427 trypomastigotes were cultured in Iscove’sss Modified Dulbecco’s medium (IMDM, Lonza, Basel Switzerland) supplemented with 10% fetal calf serum, HMI-9 supplement, hypoxanthine, and penicillin/streptomycin at 37 °C in a 5% CO2 incubator. […] Reduction of resazurin to resorufin by viable parasites was assessed by fluorescence readings (excitation 560 nm, emission 590 nm) in a Spectramax M3 plate reader (Molecular Devices, San Jose, CA, USA). Fluorescence readings were converted to % parasite viability relative to the average readings obtained from untreated control wells. IC50 values were determined by plotting % viability vs. log[compound] and performing non-linear regression using GraphPad Prism (v. 5.02) software.

[3] = In vitro cytotoxicity assay (resazurin); type: cell-based; settings: human, HeLa cells; 20 μM compound; 48 h exposure, 24 h
Protocol: HeLa cells (Cellonex, Johannesburg, South Africa) seeded in 96-well plates were incubated with 20 μM test compounds for 24 h and cell viability assessed using a resazurin fluorescence assay as previously described.

[4] = system: Trichomonas vaginalis G3 strain; experiment: In vitro antitrichomonal assay (hemocytometer counts); type: cell-based; settings: 24 h, read-out: IC50 T. vaginalis
[5] = system: Mycobacterium tuberculosis H37Rv; experiment: In vitro antimycobacterial broth microdilution assay; type: cell-based; settings: concentration inhibiting mycobacterial growth by 99%

Compound	IC50 antitrypanosomal ([1]; T. b. brucei, footnote a: IC50 in μg/mL)	IC50 antitrypanosomal ([1]; T. b. brucei S427, footnote b: IC50 in μg/mL)	IC50 (Dd2) [nM]	IC50 [2] [nM]	viability at 48 h, 20 µM [3] [%]	IC50 [4] [nM]	MIC99 [5] [µM]	melting point [°C]
CC1(C)OB(O)c2cc(NC(=O)c3ccc(F)cc3C(F)(F)F)ccc21 [Compound 1, SCYX-7158]	0.292 ± 0.019 ^a μg/mL	–	–	–	–	–	–	–
O=C(CCc1ccccc1)Nc1ccc2c(c1)B(O)OC2 [Compound 2]	–	0.14 ^b μg/mL	–	–	–	–	–	–
Cc1ccc(CC(=O)Nc2ccc(NC(=O)/C=C/c3ccc(OCc4ccccc4)cc3)cc2C(=O)c2ccccc2)cc1 [Compound 4, 2,5-bisacylaminobenzonephone]	–	–	650	–	–	–	–	–
O=C(/C=C/c1ccccc1)Nc1ccc2c(c1)B(O)OC2 [Compound 5a, (E)-N-(1-Hydroxy-1,3-dihydrobenzo[c][1,2]oxaborol-6-yl)cinnamamide]	–	–	–	130 ± 20	108 ± 5.35	15300 ± 330	61.8 (≈ 17.2 µg/mL)	182 to 184
O=C(/C=C/c1cccc([N+](=O)[O-])c1)Nc1ccc2c(c1)B(O)OC2 [Compound 5b, (E)-N-(1-Hydroxy-1,3-dihydrobenzo[c][1,2]oxaborol-6-yl)-3-(3-nitrophenyl)acrylamide]	–	–	–	130 ± 10	87 ± 1.59	41700 ± 230	107 (≈ 34.7 µg/mL)	176 to 178
O=C(/C=C/c1ccc([N+](=O)[O-])cc1)Nc1ccc2c(c1)B(O)OC2 [Compound 5c, (E)-N-(1-Hydroxy-1,3-dihydrobenzo[c][1,2]oxaborol-6-yl)-3-(4-nitrophenyl)acrylamide]	–	–	–	920 ± 40	94.3 ± 28.8	10200 ± 560	26.5 (≈ 8.59 µg/mL)	176 to 180
O=C(/C=C/c1ccc(Br)cc1)Nc1ccc2c(c1)B(O)OC2 [Compound 5d, (E)-3-(4-Bromophenyl)-N-(1-hydroxy-1,3-dihydrobenzo[c][1,2]oxaborol-6-yl)acrylamide]	–	–	–	470 ± 40	89.9 ± 5.12	12600 ± 280	10.7 (≈ 3.83 µg/mL)	206 to 210
COc1ccc(/C=C/C(=O)Nc2ccc3c(c2)B(O)OC3)cc1 [Compound 5e, (E)-N-(1-Hydroxy-1,3-dihydrobenzo[c][1,2]oxaborol-6-yl)-3-(4-methoxyphenyl)acrylamide]	–	–	–	660 ± 30	102 ± 2.34	11700 ± 280	18.7 (≈ 5.78 µg/mL)	190 to 192
COc1ccc(/C=C/C(=O)Nc2ccc3c(c2)B(O)OC3)cc1OC [Compound 5f, (E)-3-(3,4-Dimethoxyphenyl)-N-(1-hydroxy-1,3-dihydrobenzo[c][1,2]oxaborol-6-yl)acrylamide]	–	–	–	8710 ± 650	109.9 ± 0.84	> 50000	–	188 to 190
O=C(/C=C/c1ccc2c(c1)OCO2)Nc1ccc2c(c1)B(O)OC2 [Compound 5g, (E)-3-(Benzo[d][1,3]-6-dioxol-5-yl)-N-(1-hydroxy-1,3-dihydrobenzo[c][1,2]oxaborol-6-yl)acrylamide]	–	–	–	86 ± 2	132 ± 26.6	22800 ± 1020	40.7 (≈ 13.2 µg/mL)	145 to 148
CC[C@H]1CN2CCc3cc(OC)c(OC)cc3[C@@H]2C[C@@H]1C[C@H]1NCCc2cc(OC)c(OC)cc21 [EM, emetine, reference compound]	–	–	–	–	3.19	–	–	–
Cc1ncc([N+](=O)[O-])n1CCO [ME, metronidazole, reference compound]	–	–	–	–	–	530	–	–
N=C(N)c1ccc(OCCCCCOc2ccc(C(=N)N)cc2)cc1 [PE, pentamidine, reference compound]	–	–	–	1.2 ± 0.1	–	–	–	–
CO[C@H]1/C=C/O[C@@]2(C)Oc3c(C)c(O)c4c(O)c(c(/C=N/N5CCN(C)CC5)c(O)c4c3C2=O)NC(=O)/C(C)=C\C=C\[C@H](C)[C@H](O)[C@@H](C)[C@@H](O)[C@@H](C)[C@H](OC(C)=O)[C@@H]1C [RE, rifampicin, reference compound]	–	–	–	–	–	–	0.003 (≈ 0.00247 µg/mL)	–
